According to the NIST ThermoML archive (doi:10.1016/j.jct.2016.03.030):

Assay: xn = mol fraction of the nth substance listed
Conditions: 100 kPa, Liquid; for viscosity: Falling or rolling sphere viscometry; for mass density: Vibrating tube method

CCCCC[N+]1(C)CCCCC1.[Br-] [1-methyl-1-pentylpiperidinium bromide] + O
Conditions	mass density [kg/m3]	viscosity [mPa·s]
298.15 K, x1 = 0.003	1003.5	–
298.15 K, x1 = 0.0072	1012	–
298.15 K, x1 = 0.0119	1021.1	–
298.15 K, x1 = 0.0427	1070.7	2.961
298.15 K, x1 = 0.0615	1091.4	4.385
298.15 K, x1 = 0.0839	1110.2	6.713
298.15 K, x1 = 0.1192	1131.1	12.34
298.15 K, x1 = 0.1491	1144	17.14
298.15 K, x1 = 0.2004	1159.3	27.79
298.15 K, x1 = 0.2206	1163.7	41.58
298.15 K, x1 = 0.2393	1167.7	58.11
298.15 K, x1 = 0.2655	1172.3	95.22
298.15 K, x1 = 0.2745	1173.8	107.8
303.15 K, x1 = 0.003	1002	–
303.15 K, x1 = 0.0072	1010.4	–
303.15 K, x1 = 0.0119	1019.3	–
303.15 K, x1 = 0.0427	1067.8	2.439
303.15 K, x1 = 0.0615	1088.2	3.663
303.15 K, x1 = 0.0839	1106.7	5.513
303.15 K, x1 = 0.1192	1127.5	9.841
303.15 K, x1 = 0.1491	1140.4	12.93
303.15 K, x1 = 0.2004	1153.7	21.75
303.15 K, x1 = 0.2206	1160.2	29.41
303.15 K, x1 = 0.2393	1164.2	44.51
303.15 K, x1 = 0.2655	1168.8	68.59
303.15 K, x1 = 0.2745	1170.3	77.28
308.15 K, x1 = 0.003	1000.2	–
308.15 K, x1 = 0.0072	1008.6	–
308.15 K, x1 = 0.0119	1017.3	–
308.15 K, x1 = 0.0427	1064.8	1.881
308.15 K, x1 = 0.0615	1084.9	3.087
308.15 K, x1 = 0.0839	1103.2	4.576
308.15 K, x1 = 0.1192	1123.9	8.001
308.15 K, x1 = 0.1491	1136.8	9.983
308.15 K, x1 = 0.2004	1152.1	16.35
308.15 K, x1 = 0.2206	1156.7	23.02
308.15 K, x1 = 0.2393	1160.7	33.69
308.15 K, x1 = 0.2655	1165.3	50.52
308.15 K, x1 = 0.2745	1166.8	56.51
313.15 K, x1 = 0.003	998.2	–
313.15 K, x1 = 0.0072	1006.5	–
313.15 K, x1 = 0.0119	1015.1	–
313.15 K, x1 = 0.0427	1061.8	1.639
313.15 K, x1 = 0.0615	1081.5	2.632
313.15 K, x1 = 0.0839	1099.7	3.846
313.15 K, x1 = 0.1192	1120.3	6.581
313.15 K, x1 = 0.1491	1133.2	8.698
313.15 K, x1 = 0.2004	1148.2	14.09
313.15 K, x1 = 0.2206	1153.1	18.11
313.15 K, x1 = 0.2393	1157.1	25.85
313.15 K, x1 = 0.2655	1161.8	38.16
313.15 K, x1 = 0.2745	1163.3	42.34
318.15 K, x1 = 0.003	996.1	–
318.15 K, x1 = 0.0072	1004.2	–
318.15 K, x1 = 0.0119	1012.8	–
318.15 K, x1 = 0.0427	1058.7	1.441
318.15 K, x1 = 0.0615	1078.1	2.267
318.15 K, x1 = 0.0839	1096.1	3.269
318.15 K, x1 = 0.1192	1116.6	5.458
318.15 K, x1 = 0.1491	1129.5	7.311
318.15 K, x1 = 0.2004	1144.5	11.22
318.15 K, x1 = 0.2206	1149.5	14.1
318.15 K, x1 = 0.2393	1153.6	20.21
318.15 K, x1 = 0.2655	1158.3	29.44
318.15 K, x1 = 0.2745	1159.8	32.5
323.15 K, x1 = 0.003	993.7	–
323.15 K, x1 = 0.0072	1001.9	–
323.15 K, x1 = 0.0119	1010.3	–
323.15 K, x1 = 0.0427	1055.5	1.261
323.15 K, x1 = 0.0615	1074.7	1.945
323.15 K, x1 = 0.0839	1092.5	2.77
323.15 K, x1 = 0.1192	1113	4.499
323.15 K, x1 = 0.1491	1125.8	6.029
323.15 K, x1 = 0.2004	1141.2	9.723
323.15 K, x1 = 0.2206	1145.9	12.33
323.15 K, x1 = 0.2393	1150.1	15.88
323.15 K, x1 = 0.2655	1154.8	22.79
323.15 K, x1 = 0.2745	1156.3	25.06
328.15 K, x1 = 0.003	990.9	–
328.15 K, x1 = 0.0072	999.4	–
328.15 K, x1 = 0.0119	1007.7	–
328.15 K, x1 = 0.0427	1052.2	1.11
328.15 K, x1 = 0.0615	1071.2	1.682
328.15 K, x1 = 0.0839	1088.9	2.369
328.15 K, x1 = 0.1192	1109.3	3.749
328.15 K, x1 = 0.1491	1122.1	5.354
328.15 K, x1 = 0.2004	1137.5	8.195
328.15 K, x1 = 0.2206	1142.3	10.68
328.15 K, x1 = 0.2393	1146.5	12.74
328.15 K, x1 = 0.2655	1151.3	18.03
328.15 K, x1 = 0.2745	1152.8	19.71
333.15 K, x1 = 0.003	989.3	–
333.15 K, x1 = 0.0072	996.3	–
333.15 K, x1 = 0.0119	1004.9	–
333.15 K, x1 = 0.0427	1048.8	1.034
333.15 K, x1 = 0.0615	1067.6	1.474
333.15 K, x1 = 0.0839	1085.2	2.055
333.15 K, x1 = 0.1192	1105.5	3.014
333.15 K, x1 = 0.1491	1118.4	4.513
333.15 K, x1 = 0.2004	1132.9	7.033
333.15 K, x1 = 0.2206	1138.7	8.945
333.15 K, x1 = 0.2393	1143	10.47
333.15 K, x1 = 0.2655	1147.7	14.56
333.15 K, x1 = 0.2745	1149.3	15.86
338.15 K, x1 = 0.003	986	–
338.15 K, x1 = 0.0072	993.1	–
338.15 K, x1 = 0.0119	1002	–
338.15 K, x1 = 0.0427	1045.4	0.886
338.15 K, x1 = 0.0615	1064	1.3
338.15 K, x1 = 0.0839	1081.4	1.835
338.15 K, x1 = 0.1192	1101.8	2.724
338.15 K, x1 = 0.1491	1114.7	4.032
338.15 K, x1 = 0.2004	1131.2	6.088
338.15 K, x1 = 0.2206	1135.1	7.421
338.15 K, x1 = 0.2393	1139.4	8.696
338.15 K, x1 = 0.2655	1144.2	11.95
338.15 K, x1 = 0.2745	1145.8	12.94
343.15 K, x1 = 0.003	983.6	–
343.15 K, x1 = 0.0072	990.1	–
343.15 K, x1 = 0.0119	999	–
343.15 K, x1 = 0.0427	1041.8	0.85
343.15 K, x1 = 0.0615	1060.3	1.142
343.15 K, x1 = 0.0839	1077.7	1.634
343.15 K, x1 = 0.1192	1098	2.382
343.15 K, x1 = 0.1491	1110.9	3.697
343.15 K, x1 = 0.2004	1126.4	5.341
343.15 K, x1 = 0.2206	1131.5	6.243
343.15 K, x1 = 0.2393	1135.9	7.34
343.15 K, x1 = 0.2655	1140.6	9.976
343.15 K, x1 = 0.2745	1142.3	10.75
